Laboratory results published in US11773071B2, “Benzothiazepine compounds and their use as bile acid modulators” (Albireo AB, priority 2019, dated 2023).

Test system: Caco-2 cells
Test: Bidirectional permeability assay (Caco-2 cells)
Assay type: in vitro ADME
Details: absorptive direction (A2B); 10 μM in FaSSIF buffer; 120 minutes

`CCCCC1(CCCC)CN(c2ccccc2)c2cc(SC)c(OCC(O)C(=O)O)cc2S(=O)(=O)C1` (single isomer, unassigned) [Example 11, 3-((3,3-dibutyl-7-(methylthio)-1,1-dioxido-5-phenyl-2,3,4,5-tetrahydro-1,5-benzothiazepin-8-yl)oxy)-2-hydroxypropanoic acid] was tested, and the “Permeability (Caco-2) Papp A2B” value was 1.5 ×10⁻⁶ cm/s.
